Measurements taken from patent publication US20090054454A1, “BENZOFURANYL- AND BENZOTHIENYL- PIPERAZINYL QUINOLINES AND METHODS OF THEIR USE” (priority 2007, published 2009).
Where a name gives a salt, the structure may show the parent alone.

Tests used:
Human 5-HT Transporter = Human 5-HT Transporter (Homo sapiens, UniProt P31645); test: Inhibition of 3H-5-HT Uptake by Cells Possessing the Human 5-HT Transporter (HC 5HT Transporter), Jar cells; conditions: HC-5HTC Transporter Ki (nM), Jar cells treated with staurosporine
5-HT transporter = 5-HT transporter (Rattus norvegicus, UniProt P31652); test: Rat Brain 3H-Paroxetine Binding Assay (RB 5HT Transporter); conditions: read-out: RB-5HT Transporter % inhibition @ 1 μM concentration
human 5-HT1A receptors = biological target: T1, human 5-HT1A receptors (Homo sapiens, UniProt P08908); test: Displacement of [3H] 8-OH-DPAT from the 5-HT1A serotonin receptor; format: binding; conditions: 1 μM concentration; starred cells of the 5-HT1A column
T1 construct: expressed in transfected cells; host or cells: CHO cells (stably transfected)
T1 sequence (P08908 1-422): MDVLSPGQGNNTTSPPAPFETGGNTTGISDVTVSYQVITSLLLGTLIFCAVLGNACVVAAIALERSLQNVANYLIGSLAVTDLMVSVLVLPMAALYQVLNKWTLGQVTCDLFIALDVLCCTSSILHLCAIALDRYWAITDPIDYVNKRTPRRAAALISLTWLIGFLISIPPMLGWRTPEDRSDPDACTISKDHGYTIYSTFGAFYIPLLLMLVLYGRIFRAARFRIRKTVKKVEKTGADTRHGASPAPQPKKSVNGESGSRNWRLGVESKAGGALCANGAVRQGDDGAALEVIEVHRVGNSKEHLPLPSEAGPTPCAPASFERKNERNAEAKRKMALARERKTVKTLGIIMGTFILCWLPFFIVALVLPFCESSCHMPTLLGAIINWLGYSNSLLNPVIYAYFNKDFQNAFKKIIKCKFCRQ

Sequence of 5-HT transporter (P31652 whole entry): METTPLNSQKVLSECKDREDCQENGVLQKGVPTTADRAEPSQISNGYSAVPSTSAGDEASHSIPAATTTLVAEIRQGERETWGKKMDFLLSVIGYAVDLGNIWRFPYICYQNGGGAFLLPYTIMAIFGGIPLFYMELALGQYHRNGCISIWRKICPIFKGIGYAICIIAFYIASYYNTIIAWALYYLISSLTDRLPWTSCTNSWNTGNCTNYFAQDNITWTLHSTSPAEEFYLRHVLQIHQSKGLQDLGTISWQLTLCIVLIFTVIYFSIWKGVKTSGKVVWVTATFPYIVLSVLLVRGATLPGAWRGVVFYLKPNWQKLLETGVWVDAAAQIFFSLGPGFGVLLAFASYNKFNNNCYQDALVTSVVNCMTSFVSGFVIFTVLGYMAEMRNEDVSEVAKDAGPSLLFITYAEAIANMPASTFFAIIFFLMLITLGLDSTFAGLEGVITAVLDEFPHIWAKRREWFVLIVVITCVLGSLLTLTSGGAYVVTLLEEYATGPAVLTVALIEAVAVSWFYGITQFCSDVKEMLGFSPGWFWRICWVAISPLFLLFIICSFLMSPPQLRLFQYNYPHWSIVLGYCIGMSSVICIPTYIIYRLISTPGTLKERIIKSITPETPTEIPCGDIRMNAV
Sequence of Human 5-HT Transporter (P31645 whole entry): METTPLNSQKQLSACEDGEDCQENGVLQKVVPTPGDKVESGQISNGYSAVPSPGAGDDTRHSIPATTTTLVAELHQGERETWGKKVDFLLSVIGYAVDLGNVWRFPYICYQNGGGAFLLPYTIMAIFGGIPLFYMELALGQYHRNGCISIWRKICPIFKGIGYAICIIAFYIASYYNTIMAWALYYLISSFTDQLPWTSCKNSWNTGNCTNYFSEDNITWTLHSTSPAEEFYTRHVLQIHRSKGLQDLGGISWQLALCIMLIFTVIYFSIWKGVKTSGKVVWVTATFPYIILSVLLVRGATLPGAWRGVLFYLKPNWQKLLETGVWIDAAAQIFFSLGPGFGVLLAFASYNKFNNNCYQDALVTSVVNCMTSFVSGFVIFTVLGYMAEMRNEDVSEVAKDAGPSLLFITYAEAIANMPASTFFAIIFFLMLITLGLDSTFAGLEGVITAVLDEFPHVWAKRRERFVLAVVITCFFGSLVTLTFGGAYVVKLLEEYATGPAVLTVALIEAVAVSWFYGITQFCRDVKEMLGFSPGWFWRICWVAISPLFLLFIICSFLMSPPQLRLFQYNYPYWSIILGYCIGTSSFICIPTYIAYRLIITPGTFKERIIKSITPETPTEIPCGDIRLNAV

melting point [°C]	Ki (Human 5-HT Transporter) [nM]	inhibition at 1 µM (5-HT transporter) [%]	inhibition at 1 µM (human 5-HT1A receptors) [%]	Compound
143 to 146	3040			COc1cccc2c1occ2[C@H]1CC[C@@H](N2CCN(c3ccc(F)c4cccnc34)CC2)CC1 [Compound 57, 5-fluoro-8-{4-[4-cis(7-methoxy-1-benzofuran-3-yl)cyclohexyl]-1-piperazinyl}quinoline]
195	1620			Fc1cc(N2CCN([C@H]3CC[C@H](c4csc5ccccc54)CC3)CC2)c2ncccc2c1 [Compound 44, 8-{4-[4-trans(1-benzothien-3-yl)cyclohexyl]-1-piperazinyl}-6-fluoroquinoline]
147 to 151	1440			Fc1cc(N2CCN([C@H]3CC[C@@H](c4csc5ccccc54)CC3)CC2)c2ncccc2c1 [Compound 43, 8-{4-[4-cis(1-benzothien-3-yl)cyclohexyl]-1-piperazinyl}-6-fluoroquinoline]
	3490	25		Fc1cc(N2CCN([C@H]3CC[C@@H](c4csc5ccc(F)cc54)CC3)CC2)c2ncccc2c1 [Compound 47, 6-fluoro-8-{4-[4-cis(5-fluoro-1-benzothien-3-yl)cyclohexyl]piperazin-1-yl}quinoline]
153 to 160	1200			COc1ccc2occ([C@H]3CC[C@@H](N4CCN(c5cc(F)cc6cccnc56)CC4)CC3)c2c1 [Compound 67, 6-fluoro-8-{4-[4-cis(5-methoxy-1-benzofuran-3-yl)cyclohexyl]piperazin-1-yl}quinoline]
143 to 144	184			Clc1cc(N2CCN([C@H]3CC[C@H](c4csc5ccccc54)CC3)CC2)c2ncccc2c1 [Compound 42, 8-{4-[4-trans(1-benzothien-3-yl)cyclohexyl]-1-piperazinyl}-6-chloroquinoline]
184 to 186	3000			COc1cc(N2CCN([C@H]3CC[C@@H](c4cc5ccccc5s4)CC3)CC2)c2ncccc2c1 [Compound 70]
78	43.6			COc1ccc2occ(CCN3CCN(c4cccc5cccnc45)CC3)c2c1 [Compound 21, 8-{4-[2-(5-methoxy-1-benzofuran-3-yl)ethyl]-1-piperazinyl}-quinoline]
195 to 197	337			Fc1cc(N2CCN([C@H]3CC[C@H](c4coc5ccccc54)CC3)CC2)c2ncccc2c1 [Compound 56, 8-{4-[4-trans(1-benzofuran-3-yl)cyclohexyl]-1-piperazinyl}-6-fluoroquinoline]
143 to 144	739			Fc1cc(N2CCN([C@H]3CC[C@H](c4csc5ccc(F)cc54)CC3)CC2)c2ncccc2c1 [Compound 48, 6-fluoro-8-{4-[4-trans(5-fluoro-1-benzothien-3-yl)cyclohexyl]piperazin-1-yl}quinoline]
75 to 83	455			COc1cccc2c1occ2[C@H]1CC[C@@H](N2CCN(c3cc(F)cc4cccnc34)CC2)CC1 [Compound 59, 6-fluoro-8-{4-[4-cis(7-methoxy-1-benzofuran-3-yl)cyclohexyl]-1-piperazinyl}quinoline]
195 to 197	212			COc1cccc2c1occ2[C@H]1CC[C@H](N2CCN(c3cc(F)cc4cccnc34)CC2)CC1 [Compound 60, 6-fluoro-8-{4-[4-trans(7-methoxy-1-benzofuran-3-yl)cyclohexyl]-1-piperazinyl}quinoline]
72	106			COc1ccc2occ(CCN3CCN(c4cc(Cl)cc5cccnc45)CC3)c2c1 [Compound 22, 8-{4-[2-(5-methoxy-1-benzofuran-3-yl)ethyl]-1-piperazinyl}-6-chloro-quinoline]
166 to 168	802			COc1cc(N2CCN([C@H]3CC[C@H](c4csc5ccccc54)CC3)CC2)c2ncccc2c1 [Compound 46, 8-{4-[4-trans (1-benzothien-3-yl)cyclohexyl]-1-piperazinyl}-6-methoxyquinoline]
86				COc1cc(N2CCN(CCc3coc4c(OC)cccc34)CC2)c2ncccc2c1 (as salt: HCl) [Compound 19, 8-{4-[2-(7-methoxy-1-benzofuran-3-yl)ethyl]-1-piperazinyl}-6-methoxy-quinoline]
	2150	32		Clc1cc(N2CCN(CCc3coc4cc(Cl)ccc34)CC2)c2ncccc2c1 [Compound 7, 8-{4-[2-(6-chloro-1-benzofuran-3-yl)ethyl]-1-piperazinyl}-6-chloro-quinoline]
66 to 67	96.8			COc1cccc2c1occ2[C@H]1CC[C@@H](N2CCN(c3cccc4cccnc34)CC2)CC1 [Compound 61, 8-{4-[4-cis(7-methoxy-1-benzofuran-3-yl)cyclohexyl]-1-piperazinyl}quinoline]
	3730	24	46	COc1ccc2occ(CCN3CCN(c4cc(C(C)C)cc5cccnc45)CC3)c2c1 [Compound 24, 8-{4-[2-(5-methoxy-1-benzofuran-3-yl)ethyl]-1-piperazinyl}-6-isopropyl-quinoline]
164 to 165	338			Clc1cc(N2CCN([C@H]3CC[C@@H](c4csc5ccccc54)CC3)CC2)c2ncccc2c1 [Compound 41, 8-{4-[4-cis-(1-benzothien-3-yl)cyclohexyl]-1-piperazinyl}-6-chloroquinoline]
192 to 197	1150			Fc1ccc2scc([C@H]3CC[C@@H](N4CCN(c5ccc(Cl)c6cccnc56)CC4)CC3)c2c1 [Compound 51, 5-chloro-8-{4-[4-cis(5-fluoro-1-benzothien-3-yl)cyclohexyl]piperazin-1-yl}quinoline]
91 to 93				Fc1cc(N2CCN(C3CCC(c4cc5ccccc5o4)CC3)CC2)c2ncccc2c1 (centres unmarked) [Compound 69, 8-[4-(4-benzofuran-2-yl-yclohexyl)-piperazin-1-yl]-6-fluoro-quinoline]
148 to 150	1080			COc1cc(N2CCN([C@H]3CC[C@@H](c4csc5ccccc54)CC3)CC2)c2ncccc2c1 [Compound 45, 8-{4-[4-cis(1-benzothien-3-yl)cyclohexyl]-1-piperazinyl}-6-methoxyquinoline]
162 to 164	220			Fc1ccc(N2CCN([C@H]3CC[C@H](c4coc5ccccc54)CC3)CC2)c2ncccc12 [Compound 54, 8-{4-[4-trans(1-benzofuran-3-yl)cyclohexyl]-1-piperazinyl}-5-fluoroquinoline]
55				Fc1cc(N2CCN(CCc3coc4ccc(F)cc34)CC2)c2ncccc2c1 (as salt: HCl) [Compound 17, 8-{4-[2-(5-fluoro-1-benzofuran-3-yl)ethyl]-1-piperazinyl}-6-fluoro-quinoline]
142 to 144	3910			Fc1ccc(N2CCN([C@H]3CC[C@@H](c4coc5ccccc54)CC3)CC2)c2ncccc12 [Compound 53, 8-{4-[4-cis(1-benzofuran-3-yl)cyclohexyl]-1-piperazinyl}-5-fluoroquinoline]
195 to 197	38			COc1cccc2c1occ2[C@H]1CC[C@H](N2CCN(c3cccc4cccnc34)CC2)CC1 [Compound 62, 8-{4-[4-trans(7-methoxy-1-benzofuran-3-yl)cyclohexyl]-1-piperazinyl}quinoline]
195 to 197	751		42	Fc1ccc2scc([C@H]3CC[C@H](N4CCN(c5ccc(Cl)c6cccnc56)CC4)CC3)c2c1 [Compound 52, 5-chloro-8-{4-[4-trans(5-fluoro-1-benzothien-3-yl)cyclohexyl]piperazin-1-yl}quinoline]
152 to 155	3290			COc1ccc2occ([C@H]3CC[C@H](N4CCN(c5cc(F)cc6cccnc56)CC4)CC3)c2c1 [Compound 68, 6-fluoro-8-{4-[4-trans(5-methoxy-1-benzofuran-3-yl)cyclohexyl]piperazin-1-yl}quinoline]
80				COc1cc(N2CCN(CCc3coc4ccc(F)cc34)CC2)c2ncccc2c1 (as salt: HCl) [Compound 16, 8-{4-[2-(5-fluoro-1-benzofuran-3-yl)ethyl]-1-piperazinyl}-6-methoxy-quinoline]
